From PubChem BioAssay (NCI)
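Exposure lasted 48 hours, with cells grown in 96-well plates and compounds tested at five concentrations. TGI is the concentration that stops growth completely.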

Legend:
Experiment in all cases: NCI tumour cell line growth inhibition, 48 h
A549 NSCLC = tested on: A549 NSCLC
COLO 205 colon = tested on: COLO 205 colon
HCT-116 colon = tested on: HCT-116 colon
HCT-15 colon = tested on: HCT-15 colon
IGROV1 ovarian = tested on: IGROV1 ovarian
MALME-3M melanoma = tested on: MALME-3M melanoma
MCF7 breast = tested on: MCF7 breast
MDA-MB-231 breast = tested on: MDA-MB-231 breast
MDA-MB-435 = tested on: MDA-MB-435
SK-MEL-28 melanoma = tested on: SK-MEL-28 melanoma
SNB-19 CNS = tested on: SNB-19 CNS
SW-620 colon = tested on: SW-620 colon
TK-10 renal = tested on: TK-10 renal
UACC-62 melanoma = tested on: UACC-62 melanoma
SF-539 CNS = tested on: SF-539 CNS
CCRF-CEM leukemia = tested on: CCRF-CEM leukemia

Row | Structure (SMILES) | TGI (A549 NSCLC) [µM] | TGI (COLO 205 colon) [µM] | TGI (HCT-116 colon) [µM] | TGI (HCT-15 colon) [µM] | TGI (IGROV1 ovarian) [µM] | TGI (MALME-3M melanoma) [µM] | TGI (MCF7 breast) [µM] | TGI (MDA-MB-231 breast) [µM] | TGI (MDA-MB-435) [µM] | TGI (SK-MEL-28 melanoma) [µM] | TGI (SNB-19 CNS) [µM] | TGI (SW-620 colon) [µM] | TGI (TK-10 renal) [µM] | TGI (UACC-62 melanoma) [µM] | TGI (SF-539 CNS) [µM] | TGI (CCRF-CEM leukemia) [µM]
1 | CC1(c2ccccc2)O[C@@H]2C[C@H]3[C@@H]4CCC5=CC(=O)C=C[C@]5(C)[C@@]4(F)[C@@H](O)C[C@]3(C)[C@]2(C(=O)CO)O1 (some centres not stated) | 29.2 | 27.8 | 27.8 | 36 | 38.7 | 27.5 | 29.9 | 24.5 | 33.1 | 30.8 | 63.7 | 47.1 | 41.6 | 35.6 |  | 
2 | [N-]=[N+]=NC1C(O)C(CO)OC1n1ccc(N)nc1=O (configuration not stated) | > 625 | > 568 | > 625 | > 625 | > 625 | > 625 | > 625 | > 564 | > 625 | > 625 | > 625 | > 625 | > 625 | 350 | 455 | 
3 | CSc1c(C#N)c(=O)n(N)c2c1c(C)nn2-c1ccccc1 | 61.6 | 32.5 | 56.2 | 85.4 |  | 70.2 | 39.2 | 57.9 | > 100 | > 100 | > 100 | > 100 | > 100 | 75.8 | 55.5 | 76.3
4 | CC1=NN(c2ccc(S(=O)(=O)O)cc2)C2(C1)C(Cl)C(=O)N2c1nc2ccccc2s1 (configuration not stated) | > 100 | > 100 | > 100 | > 100 | > 100 | > 100 | > 100 | > 100 | > 100 | > 100 | > 100 | > 100 | > 100 | > 100 |  | > 100
5 | Cc1ccc2[nH]c3c(c(=O)n(C)c(=O)n3C)c2c1 | > 100 | > 100 | > 100 | > 100 | > 100 | > 100 | > 100 | > 100 | > 100 |  | > 100 | > 100 | > 100 | > 100 | > 100 | > 100
6 | N#Cc1c(Cl)cc(C#N)n2c1nc1ccccc12 | 22.2 | 15.3 | 12.8 | 21.2 | 28.3 | 18.5 | 24.9 | 24 | 26.2 | 26.5 | > 84.7 | 9.1 | 26.4 | 38.4 | 19.1 | 
7 | COC(=O)[C@@H]1C[C@@H](O)CN1C(=O)c1ccc([N+](=O)[O-])cc1[N+](=O)[O-] | > 100 | > 100 | > 100 | > 100 | > 100 |  | > 100 | > 100 | > 100 | > 100 | > 100 | > 100 | > 100 | > 100 | > 100 | > 100
8 | Cc1c(C(=O)c2ccccc2)[n+](=O)c2cc(Cl)c(Cl)cc2n1[O-] | 27.5 | 33.5 | 26.3 | 4.56 | 5.16 |  | 26.6 | 25.9 | 24.5 | 29.1 | 37.4 |  | 23.9 | 25.1 | 32.5 | 71.5
9 | N=c1oc2ccccc2cc1C(=O)Nc1cccc2ccccc12 | > 100 | > 100 | > 100 | > 100 | > 100 | > 100 | > 100 | > 100 | > 100 | > 100 | > 100 | > 100 |  | > 100 | > 100 | > 100
10 | O=C1Nc2ccc(Br)cc2/C1=N/S(=O)(=O)O | 78.9 | > 100 | > 100 | > 100 | > 100 | 71.4 | 40 | 36 | 22.7 | > 100 | > 100 | > 100 | 57.1 | 40.3 |  | 35.6
11 | O=Cc1ccc2ccocc1-2 | > 100 | > 100 | > 100 | > 100 | > 100 |  | > 100 | > 100 | > 100 |  | > 100 | > 100 | > 100 | > 100 | > 100 | > 100
